# Measurements published in US11155544B2, “Heterocycle comprising tyrosine kinase inhibitors” (Principia Biopharma Inc., priority 2015, dated 2021).
# Target: human recombinant BTK (Homo sapiens (Human), UniProt Q06187)
# Test: BTK Enzymatic Activity Assay (Caliper-based kinase assay)
# Format: biochemical
# Details: human recombinant BTK (0.5 nM), ATP (16 μM), peptide substrate (1 μM), room temperature for 3 h
# Protocol: A Caliper-based kinase assay (Caliper Life Sciences, Hopkinton, Mass.) was used to measure inhibition of BTK kinase activity of a compound of the present disclosure. Serial dilutions of test compounds were incubated with human recombinant BTK (0.5 nM), ATP (16 μM) and a phosphoacceptor peptide substrate FAM-GEEPLYWSFPAKKK-NH2 (1 μM) at room temperature for 3 h. The reaction was then terminated with EDTA, final concentration 20 mM and the phosphorylated reaction product was quantified on a Caliper Desktop Profiler (Caliper LabChip 3000). Percent inhibition was calculated for each compound dilution and the concentration that produced 50% inhibition was calculated. This value is presented as the IC50.
# Chain of human recombinant BTK (Q06187 whole entry): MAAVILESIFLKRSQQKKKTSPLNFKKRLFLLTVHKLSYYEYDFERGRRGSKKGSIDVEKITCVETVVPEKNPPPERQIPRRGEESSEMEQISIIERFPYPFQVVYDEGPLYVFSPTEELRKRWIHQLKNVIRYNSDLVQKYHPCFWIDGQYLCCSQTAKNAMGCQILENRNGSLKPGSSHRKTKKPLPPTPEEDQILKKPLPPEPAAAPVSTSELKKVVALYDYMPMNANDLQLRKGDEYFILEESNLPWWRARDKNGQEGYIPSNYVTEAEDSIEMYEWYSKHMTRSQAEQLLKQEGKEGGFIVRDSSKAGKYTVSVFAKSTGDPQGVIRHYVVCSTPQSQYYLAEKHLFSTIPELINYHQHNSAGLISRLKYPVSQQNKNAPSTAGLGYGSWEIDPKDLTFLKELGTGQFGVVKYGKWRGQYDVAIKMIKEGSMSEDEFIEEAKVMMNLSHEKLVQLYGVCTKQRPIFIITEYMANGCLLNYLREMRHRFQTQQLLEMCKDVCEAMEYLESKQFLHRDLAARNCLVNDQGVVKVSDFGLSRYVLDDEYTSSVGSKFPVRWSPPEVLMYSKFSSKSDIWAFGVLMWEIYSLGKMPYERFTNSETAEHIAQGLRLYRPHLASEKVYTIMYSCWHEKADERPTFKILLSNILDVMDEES
row,Compound,IC50
1,"CC1(C=C(C#N)C(=O)N2CCC[C@@H](n3nc(-c4ccc(Oc5ccccc5)cc4F)c4c(N)nccc43)C2)CCOCC1 [Compound 48, (R)-2-(3-(4-amino-3-(2-fluoro-4-phenoxyphenyl)-1H-pyrazolo[4,3-c]pyridin-1-yl)piperidine-1-carbonyl)-3-(4-methyltetrahydro-2H-pyran-4-yl)acrylonitrile]",3.1 nM
2,"CN1CCN(C(C)(C)C=C(C#N)C(=O)N2CCC[C@@H](n3nc(-c4ccc(C(=O)Nc5ccccn5)cc4)c4c(N)nccc43)C2)CC1 [Compound 45, (R)-4-(4-amino-1-(1-(2-cyano-4-methyl-4-(4-methylpiperazin-1-yl)pent-2-enoyl)piperidin-3-yl)-1H-pyrazolo[4,3-c]pyridin-3-yl)-N-(pyridin-2-yl)benzamide]",4.6 nM
3,"CN1CCN(C(=O)C(C#N)=CC(C)(C)C)C[C@@H]1c1nc(-c2ccc(Oc3ccccc3)cc2)c2c(N)nccn12 [Compound 66, (R)-2-(3-(8-amino-1-(4-phenoxyphenyl)imidazo[1,5-a]pyrazin-3-yl)-4-methylpiperazine-1-carbonyl)-4,4-dimethylpent-2-enenitrile]",0.3 nM
4,"CC(C)(C=C(C#N)C(=O)N1CCC[C@@H](n2nc(-c3ccc(C(=O)Nc4cc(F)ccn4)cc3)c3c(N)nccc32)C1)N1CCN(C2COC2)CC1 [Compound 50, (R)-4-(4-amino-1-(1-(2-cyano-4-methyl-4-(4-(oxetan-3-yl)piperazin-1-yl)pent-2-enoyl)piperidin-3-yl)-1H-pyrazolo[4,3-c]pyridin-3-yl)-N-(4-fluoropyridin-2-yl)benzamide]",4.2 nM
5,"CC(C)(C=C(C#N)C(=O)N1CCC[C@@H](n2nc(-c3ccc(Oc4ccccc4)cc3)c3c(N)nccc32)C1)N1CCN(C2(C)COC2)CC1 [Compound 39, (R)-2-(3-(4-amino-3-(4-phenoxyphenyl)-1H-pyrazolo[4,3-c]pyridin-1-yl)piperidine-1-carbonyl)-4-methyl-4-(4-(3-methyloxetan-3-yl)piperazin-1-yl)pent-2-enenitrile]",1.3 nM
6,"CN1CCN(C(C)(C)C=C(C#N)C(=O)N2CCC[C@@H](c3nc(-c4ccc(Oc5ccccc5)cc4)c4c(N)nccn34)C2)CC1=O [Compound 52, (R)-2-(3-(8-amino-1-(4-phenoxyphenyl)imidazo[1,5-a]pyrazin-3-yl)piperidine-1-carbonyl)-4-methyl-4-(4-methyl-3-oxopiperazin-1-yl)pent-2-enenitrile]",1.8 nM
7,"CC(C)(C=C(C#N)C(=O)N1CCC[C@@H](c2nc(-c3ccc(Oc4ccccc4)cc3)c3c(N)nccn23)C1)N1CCN2C(=O)CC[C@@H]2C1 [Compound 65, 2-((R)-3-(8-amino-1-(4-phenoxyphenyl)imidazo[1,5-a]pyrazin-3-yl)piperidine-1-carbonyl)-4-methyl-4-((R)-6-oxohexahydropyrrolo[1,2-a]pyrazin-2(1H)-yl)pent-2-enenitrile]",0.6 nM
8,"CC(C)(C=C(C#N)C(=O)N1CCC[C@@H](n2nc(-c3ccc(Oc4c(F)cccc4F)cc3)c3c(N)nccc32)C1)N1CCN(C2COC2)CC1 [Compound 28, (R)-2-(3-(4-amino-3-(4-(2,6-difluorophenoxy)phenyl)-1H-pyrazolo[4,3-c]pyridin-1-yl)piperidine-1-carbonyl)-4-methyl-4-(4-(oxetan-3-yl)piperazin-1-yl)pent-2-enenitrile]",0.9 nM
9,"CC(C)(C=C(C#N)C(=O)N1CCC[C@@H](c2nc(-c3ccc(Oc4ccccc4)cc3F)c3c(N)nccn23)C1)N1CCN(C2COC2)CC1 [Compound 2, (R)-2-(3-(8-amino-1-(2-fluoro-4-phenoxyphenyl)imidazo[1,5-a]pyrazin-3-yl)piperidine-1-carbonyl)-4-methyl-4-(4-(oxetan-3-yl)piperazin-1-yl)pent-2-enenitrile]",1.9 nM
10,"CC1(C=C(C#N)C(=O)N2CCC[C@@H](c3nc(-c4ccc(Oc5ccccc5)cc4)c4c(N)nccn34)C2)CCOCC1 [Compound 54, (R)-2-(3-(8-amino-1-(4-phenoxyphenyl)imidazo[1,5-a]pyrazin-3-yl)piperidine-1-carbonyl)-3-(4-methyltetrahydro-2H-pyran-4-yl)acrylonitrile]",1.7 nM
11,"COC(=O)N1CCN(C(C)(C)C=C(C#N)C(=O)N2CCC[C@@H](c3nc(-c4ccc(Oc5ccccc5)cc4)c4c(N)nccn34)C2)CC1 [Compound 56, (R)-methyl 4-(5-(3-(8-amino-1-(4-phenoxyphenyl)imidazo[1,5-a]pyrazin-3-yl)piperidin-1-yl)-4-cyano-2-methyl-5-oxopent-3-en-2-yl)piperazine-1-carboxylate]",1.2 nM
12,"CN1CCN(C(C)(C)C=C(C#N)C(=O)N2CCC[C@H]2Cn2nc(-c3ccc(C(=O)Nc4ccccn4)cc3)c3c(N)nccc32)CC1 [Compound 20, (S)-4-(4-amino-1-((1-(2-cyano-4-methyl-4-(4-methylpiperazin-1-yl)pent-2-enoyl)pyrrolidin-2-yl)methyl)-1H-pyrazolo[4,3-c]pyridin-3-yl)-N-(pyridin-2-yl)benzamide]",19.1 nM
13,"CC(=O)N1CCN(C(C)(C)C=C(C#N)C(=O)N2CCC[C@@H](c3nc(-c4ccc(Oc5ccccc5)cc4)c4c(N)nccn34)C2)CC1 [Compound 57, (R)-4-(4-acetylpiperazin-1-yl)-2-(3-(8-amino-1-(4-phenoxyphenyl)imidazo[1,5-a]pyrazin-3-yl)piperidine-1-carbonyl)-4-methylpent-2-enenitrile]",1.1 nM
14,"CN1CCN(C(C)(C)C=C(C#N)C(=O)N2CCC[C@@H](n3nc(-c4ccc(Oc5ccccc5)cc4F)c4c(N)nccc43)C2)CC1=O [Compound 72, (R)-2-(3-(4-amino-3-(2-fluoro-4-phenoxyphenyl)-1H-pyrazolo[4,3-c]pyridin-1-yl)piperidine-1-carbonyl)-4-methyl-4-(4-methyl-3-oxopiperazin-1-yl)pent-2-enenitrile]",2 nM
15,"CC1(C=C(C#N)C(=O)N2CCC[C@@H](c3nc(-c4ccc(Oc5ccccc5)cc4F)c4c(N)nccn34)C2)CCOCC1 [Compound 53, (R)-2-(3-(8-amino-1-(2-fluoro-4-phenoxyphenyl)imidazo[1,5-a]pyrazin-3-yl)piperidine-1-carbonyl)-3-(4-methyltetrahydro-2H-pyran-4-yl)acrylonitrile]",2 nM
16,"CN(C1COC1)C(C)(C)C=C(C#N)C(=O)N1CCC[C@@H](n2nc(-c3ccc(C(=O)Nc4ccccn4)cc3)c3c(N)nccc32)C1 [Compound 46, (R)-4-(4-amino-1-(1-(2-cyano-4-methyl-4-(methyl(oxetan-3-yl)amino)pent-2-enoyl)piperidin-3-yl)-1H-pyrazolo[4,3-c]pyridin-3-yl)-N-(pyridin-2-yl)benzamide]",2.1 nM
17,"COC(=O)N1CCN(C(C)(C)C=C(C#N)C(=O)N2CCC[C@@H](c3nc(-c4ccc(Oc5ccccc5)cc4F)c4c(N)nccn34)C2)CC1 [Compound 58, (R)-methyl 4-(5-(3-(8-amino-1-(2-fluoro-4-phenoxyphenyl)imidazo[1,5-a]pyrazin-3-yl)piperidin-1-yl)-4-cyano-2-methyl-5-oxopent-3-en-2-yl)piperazine-1-carboxylate]",2.8 nM
18,"CCN1CCN(C(C)(C)C=C(C#N)C(=O)N2CCC[C@@H](n3nc(-c4ccc(Oc5ccccc5)cc4F)c4c(N)nccc43)C2)CC1=O [Compound 40, (R)-2-(3-(4-amino-3-(2-fluoro-4-phenoxyphenyl)-1H-pyrazolo[4,3-c]pyridin-1-yl)piperidine-1-carbonyl)-4-methyl-4-(4-ethyl-3-oxopiperazin-1-yl)pent-2-enenitrile]",2.4 nM
